# Data: patent US20260008862A1, “Bispecific Anti-BCMA x Anti-CD3 Antibodies and Uses Thereof” (Regeneron Pharmaceuticals, Inc., priority 2018, published 2026)
# Where two headings read alike, the source gives them in different places.
# Key:
# [1] = system: BCMA-expressing NCI-H929 tumors; assay: NCI-H929 + PBMC xenogenic tumor model, immediate treatment, dose response (Example 11); format: in vivo, mouse
# Experimental: To determine the in vivo efficacy of anti-BCMA×anti-CD3 bispecific antibodies (Abs), a xenogenic tumor study was performed. Immunodeficient NOD.Cg-Prkdc^scidIl2rg^tm1Wji/SzJ (NSG) mice were subcutaneously implanted with a mixture of 10×10^6 BCMA-expressing NCI-H929 human multiple myeloma tumor cells and 0.5×10^6 human peripheral blood mononuclear cells (PBMC) isolated from a normal, healthy donor. […] The mice were administered these Abs twice per week for a total of seven doses, and tumor growth was assessed over 60 days. While BCMA^+ NCI-H929 tumors grew similarly in the vehicle- and CD3-binding control-treated mice, both anti-BCMA×anti-CD3 Abs that were tested prevented the growth of tumors in a dose-dependent manner in vivo.
# Implantation and measurement of xenogenic tumors: NSG mice were subcutaneously implanted with a mixture of 10×10^6 BCMA-expressing NCI-H929 multiple myeloma cells and 0.5×10^6 PBMC derived from a normal, healthy donor. […] The mice were administered Abs twice per week for a total of seven doses. Tumor growth was measured with calipers twice per week for the duration of the experiment.
# Calculation of xenogenic tumor growth and inhibition: In order to determine tumor volume by external caliper, the greatest longitudinal diameter (length in mm) and the greatest transverse diameter (width in mm) were determined. Tumor volumes based on caliper measurements were calculated by the formula: Volume (mm^3)=(length×width^2)/2.
# [2] = system: primary multiple myeloma blast cells; assay: FACS cytotoxicity assay, autologous T cell-mediated killing of primary multiple myeloma blast cells; format: cell-based, human; settings: for EC50: read-out: MM Lysis EC50
# Experimental: In order to monitor the specific killing of multiple myeloma cells by flow cytometry, bone marrow mononuclear cells (BMMC) from multiple myeloma patients were plated on human stromal cells (HS5) and rested overnight at 37 C. Separately, matching patient peripheral blood mononuclear cells (PBMC) were thawed and cultured in supplemented RPMI media at 1×10^6 cells/mL overnight at 37° C. in order to enrich for lymphocytes by depleting adherent cells. The next day, BMMC were co-incubated with adherent cell-depleted naïve PBMC on stromal cells (HS5) and a serial […] dilution of BCMA×CD3 bispecific or 1-arm CD3 isotype control (starting concentration 66.7 nM) at 37° C. Cells were removed from cell culture plates at day 3, 4 or 7 and analyzed by FACS. For the assessment of specificity of killing, multiple myeloma cells were gated as single, live, CD90 negative (to exclude stromal cells), CD2 negative, CD56 positive. CD45 was low on multiple myeloma cells in most samples except MM455. Percent of live target cells was reported for the calculation of adjusted survival as follows: Adjusted survival=(R1/R2)*100, where R1=% live target cells in the presence of antibody, and R2=% live target cells in the absence of test antibody.
# T cells were gated as CD2 positive, CD56 negative and either CD4 or CD8 positive. T cell activation was reported as the percent of CD25+CD4 or CD8 T cells out of total CD4 or CD8 T cells.
# [3] = system: Jurkat/NFATLuc.3C7 cells + HEK293 (BCMA negative) cells; assay: Jurkat/NFATLuc reporter bioassay with HEK293 cells; format: cell-based; settings: highest RLU / lowest RLU
# Experimental: (§1) Activity of the anti-BCMA×anti-CD3 bispecific antibodies were assessed in a Jurkat/NFATLuc reporter bioassay utilizing several cell lines with varying levels of BCMA surface expression. The Jurkat cells were engineered to express an NFAT-luciferase reporter (Jurkat/NFATLuc.3C7), and 50,000 Jurkat reporter cells were combined with 50,000 BCMA positive (Daudi, MM1-S, NCI-H929, OPM-2, RPMI-8226, MOLP-8, or Raji) or BCMA negative (HEK293) cells in Thermo Nunclon delta 96 well white microwell plates (Thermo Scientific, Cat #136102) in 50 ul of assay media (RPMI media with 10% FBS and 1% P/S/G). Three-fold serial dilutions of the BCMA×CD3 bispecific antibodies (mAb25441 D or mAb25442D), or a bivalent anti-BCMA antibody (mAb21581) were immediately added in 50 μL of assay buffer. The plates were gently agitated and incubated in a 37° C., 5% CO2 incubator for 4-6 hours. NFAT-Luciferase activity was determined using Promega One-Glo (Cat #E6130) and a Perkin Elmer Envision plate reader. RLU were plotted in GraphPad Prism using a four-parameter logistic equation over a 12-point response curve to calculate EC50 values. […] The signal to noise (S:N) is determined by taking the ratio of the highest RLU on the curve to the lowest.
# [4] = system: Jurkat/NFATLuc.3C7 cells + Raji cells; assay: Jurkat/NFATLuc reporter bioassay with Raji cells; format: cell-based; settings: highest RLU / lowest RLU
# Experimental: as §1
# [5] = sample MM2, newly diagnosed, E:T 1.4, 7 days
# [6] = sample MM369, newly diagnosed, E:T 0.3, 3 days
# [7] = sample MM453, newly diagnosed, E:T 2.4, 3 days
# [8] = sample MM455, progression, treated, E:T 0.4, 3 days
substance,measurement,setting,value
"REGN5458: anti-BCMA×anti-CD3 bispecific antibody: BCMA HCVR of mAb21581 (SEQ 66), CD3 HCVR of mAb7221G (SEQ 90), common LCVR SEQ 82",Average Tumor Size (mm3) ± SEM on Day 7,[1]; 0.04 mg/kg,30.8 ± 5.5 mm3
same,Average Tumor Size (mm3) ± SEM on Day 12,[1]; 0.04 mg/kg,71.5 ± 22.4 mm3
same,Average Tumor Size (mm3) ± SEM on Day 15,[1]; 0.04 mg/kg,133.4 ± 50.9 mm3
same,Average Tumor Size (mm3) ± SEM on Day 19,[1]; 0.04 mg/kg,413.7 ± 162.7 mm3
same,Average Tumor Size (mm3) ± SEM on Day 22,[1]; 0.04 mg/kg,669.4 ± 248.5 mm3
same,Average Tumor Size (mm3) ± SEM on Day 26,[1]; 0.04 mg/kg,1167.0 ± 431.7 mm3
same,Average Tumor Size (mm3) ± SEM on Day 29,[1]; 0.04 mg/kg,1781.8 ± 620.7 mm3
same,Average Tumor Size (mm3) ± SEM on Day 4,[1]; 0.4 mg/kg,31.9 ± 2.0 mm3
same,Average Tumor Size (mm3) ± SEM on Day 7,[1]; 0.4 mg/kg,11.3 ± 3.0 mm3
same,Average Tumor Size (mm3) ± SEM on Day 15,[1]; 0.4 mg/kg,0 ± 0 mm3
same,Average Tumor Size (mm3) ± SEM on Day 19,[1]; 0.4 mg/kg,0 ± 0 mm3
same,Average Tumor Size (mm3) ± SEM on Day 22,[1]; 0.4 mg/kg,0 ± 0 mm3
same,Average Tumor Size (mm3) ± SEM on Day 26,[1]; 0.4 mg/kg,0 ± 0 mm3
same,Average Tumor Size (mm3) ± SEM on Day 29,[1]; 0.4 mg/kg,0 ± 0 mm3
same,Average Tumor Size (mm3) ± SEM on Day 34,[1]; 0.4 mg/kg,0 ± 0 mm3
same,Average Tumor Size (mm3) ± SEM on Day 39,[1]; 0.4 mg/kg,0 ± 0 mm3
same,Average Tumor Size (mm3) ± SEM on Day 42,[1]; 0.4 mg/kg,0 ± 0 mm3
same,Average Tumor Size (mm3) ± SEM on Day 46,[1]; 0.4 mg/kg,0 ± 0 mm3
same,Average Tumor Size (mm3) ± SEM on Day 55,[1]; 0.4 mg/kg,0 ± 0 mm3
same,Average Tumor Size (mm3) ± SEM on Day 60,[1]; 0.4 mg/kg,0 ± 0 mm3
same,Average Tumor Size (mm3) ± SEM on Day 4,[1]; 4 mg/kg,18.0 ± 1.2 mm3
same,Average Tumor Size (mm3) ± SEM on Day 12,[1]; 4 mg/kg,0 ± 0 mm3
same,Average Tumor Size (mm3) ± SEM on Day 15,[1]; 4 mg/kg,0 ± 0 mm3
same,Average Tumor Size (mm3) ± SEM on Day 19,[1]; 4 mg/kg,0 ± 0 mm3
same,Average Tumor Size (mm3) ± SEM on Day 22,[1]; 4 mg/kg,0 ± 0 mm3
same,Average Tumor Size (mm3) ± SEM on Day 26,[1]; 4 mg/kg,0 ± 0 mm3
same,Average Tumor Size (mm3) ± SEM on Day 29,[1]; 4 mg/kg,0 ± 0 mm3
same,Average Tumor Size (mm3) ± SEM on Day 34,[1]; 4 mg/kg,0 ± 0 mm3
same,Average Tumor Size (mm3) ± SEM on Day 39,[1]; 4 mg/kg,0 ± 0 mm3
same,Average Tumor Size (mm3) ± SEM on Day 42,[1]; 4 mg/kg,0 ± 0 mm3
same,Average Tumor Size (mm3) ± SEM on Day 46,[1]; 4 mg/kg,0 ± 0 mm3
same,Average Tumor Size (mm3) ± SEM on Day 55,[1]; 4 mg/kg,0 ± 0 mm3
same,Average Tumor Size (mm3) ± SEM on Day 60,[1]; 4 mg/kg,0 ± 0 mm3
same,EC50,"[2]; sample MM2, E:T 1.4, 7 days",0.747 nM
same,% MM lysis at 66 nM,[2]; [5],88%
same,% MM lysis at 66 nM,[2]; [6],96%
same,EC50,"[2]; sample MM453, E:T 2.4, 3 days",0.0989 nM
same,% MM lysis at 66 nM,[2]; [7],82%
same,EC50,"[2]; sample MM455, E:T 0.4, 3 days",3.67 nM
same,% MM lysis at 66 nM,[2]; [8],63%
same,S:N,[3],1
same,S:N,[4],123
"REGN5459: anti-BCMA×anti-CD3 bispecific antibody: BCMA HCVR of mAb21581 (SEQ 66), CD3 HCVR of mAb7221G20 (SEQ 98), common LCVR SEQ 82",Average Tumor Size (mm3) ± SEM on Day 4,[1]; 0.04 mg/kg,33.0 ± 4.4 mm3
same,Average Tumor Size (mm3) ± SEM on Day 7,[1]; 0.04 mg/kg,8.4 ± 4.0 mm3
same,Average Tumor Size (mm3) ± SEM on Day 12,[1]; 0.04 mg/kg,0 ± 0 mm3
same,Average Tumor Size (mm3) ± SEM on Day 19,[1]; 0.04 mg/kg,23.1 ± 23.1 mm3
same,Average Tumor Size (mm3) ± SEM on Day 22,[1]; 0.04 mg/kg,69.5 ± 69.5 mm3
same,Average Tumor Size (mm3) ± SEM on Day 26,[1]; 0.04 mg/kg,156.7 ± 156.7 mm3
same,Average Tumor Size (mm3) ± SEM on Day 29,[1]; 0.04 mg/kg,226.6 ± 226.6 mm3
same,Average Tumor Size (mm3) ± SEM on Day 4,[1]; 0.4 mg/kg,19.6 ± 4.4 mm3
same,Average Tumor Size (mm3) ± SEM on Day 12,[1]; 0.4 mg/kg,0 ± 0 mm3
same,Average Tumor Size (mm3) ± SEM on Day 15,[1]; 0.4 mg/kg,0 ± 0 mm3
same,Average Tumor Size (mm3) ± SEM on Day 19,[1]; 0.4 mg/kg,0 ± 0 mm3
same,Average Tumor Size (mm3) ± SEM on Day 22,[1]; 0.4 mg/kg,0 ± 0 mm3
same,Average Tumor Size (mm3) ± SEM on Day 26,[1]; 0.4 mg/kg,0 ± 0 mm3
same,Average Tumor Size (mm3) ± SEM on Day 29,[1]; 0.4 mg/kg,0 ± 0 mm3
same,Average Tumor Size (mm3) ± SEM on Day 34,[1]; 0.4 mg/kg,0 ± 0 mm3
same,Average Tumor Size (mm3) ± SEM on Day 39,[1]; 0.4 mg/kg,0 ± 0 mm3
same,Average Tumor Size (mm3) ± SEM on Day 42,[1]; 0.4 mg/kg,0 ± 0 mm3
same,Average Tumor Size (mm3) ± SEM on Day 46,[1]; 0.4 mg/kg,0 ± 0 mm3
same,Average Tumor Size (mm3) ± SEM on Day 55,[1]; 0.4 mg/kg,0 ± 0 mm3
same,Average Tumor Size (mm3) ± SEM on Day 60,[1]; 0.4 mg/kg,0 ± 0 mm3
same,Average Tumor Size (mm3) ± SEM on Day 4,[1]; 4 mg/kg,21.8 ± 3.4 mm3
same,Average Tumor Size (mm3) ± SEM on Day 7,[1]; 4 mg/kg,8.0 ± 4.3 mm3
same,Average Tumor Size (mm3) ± SEM on Day 12,[1]; 4 mg/kg,1.7 ± 1.7 mm3
same,Average Tumor Size (mm3) ± SEM on Day 15,[1]; 4 mg/kg,0 ± 0 mm3
same,Average Tumor Size (mm3) ± SEM on Day 19,[1]; 4 mg/kg,0 ± 0 mm3
same,Average Tumor Size (mm3) ± SEM on Day 22,[1]; 4 mg/kg,0 ± 0 mm3
same,Average Tumor Size (mm3) ± SEM on Day 26,[1]; 4 mg/kg,0 ± 0 mm3
same,Average Tumor Size (mm3) ± SEM on Day 29,[1]; 4 mg/kg,0 ± 0 mm3
same,Average Tumor Size (mm3) ± SEM on Day 34,[1]; 4 mg/kg,0 ± 0 mm3
same,Average Tumor Size (mm3) ± SEM on Day 39,[1]; 4 mg/kg,0 ± 0 mm3
same,Average Tumor Size (mm3) ± SEM on Day 42,[1]; 4 mg/kg,0 ± 0 mm3
same,Average Tumor Size (mm3) ± SEM on Day 46,[1]; 4 mg/kg,0 ± 0 mm3
same,Average Tumor Size (mm3) ± SEM on Day 55,[1]; 4 mg/kg,0 ± 0 mm3
same,Average Tumor Size (mm3) ± SEM on Day 60,[1]; 4 mg/kg,0 ± 0 mm3
same,EC50,"[2]; sample MM2, E:T 1.4, 7 days",7.24 nM
same,% MM lysis at 66 nM,[2]; [5],85%
same,EC50,"[2]; sample MM369, E:T 0.3, 3 days",0.496 nM
same,% MM lysis at 66 nM,[2]; [6],94%
same,EC50,"[2]; sample MM453, E:T 2.4, 3 days",1.19 nM
same,% MM lysis at 66 nM,[2]; [7],80%
same,EC50,"[2]; sample MM455, E:T 0.4, 3 days",79.4 nM
same,% MM lysis at 66 nM,[2]; [8],52%
same,S:N,[3],1
same,S:N,[4],78
